≈ marks a conversion by molar mass, not a printed value. Read-outs that look alike come from different tables or passages of the source.
Assays:
Experiment in all cases: Microbroth dilution MIC
Type in all cases: cell-based
[1] = tested on: Enterococcus Faecalia CLB 21560
Experimental: (§1) Cation-Adjusted Mueller Hinton Broth (BBL): Prepared according to manufacturer's instructions (22 gms dissolved in 1000 mL water; autoclaved 22 minutes). Stored refrigerated. Filter-sterilized before use using a Coming 0.45 Tm cellulose acetate filter.
(§2) The type of strains listed above can be obtained from publicly available sources. The strain of Haemophilus influenzae used in to assay the compound of this invention is a mouse pathogen used for in vivo testing at Merck. The Escherichia coli strain used in to assay the compound of this invention is a cell wall permeable strain. The Candida albicans strain is used as a control. These culture are maintained as frozen stocks at −80° C. in a) Microbank beads; b) 2× Skim Milk; or c) in 2× X Trypticase Soy Broth+15% glycerol/50% horse serum (Haemophilus and Streptococcus pneumoniae).
(§3) Selected isolates are sub-cultured onto either Chocolate Agar Plates (Haemophilus influenzae), onto Trypticase Soy+5% Sheep Blood Agar Plates (Streptococcus pneumoniae, Staphylococcus aureus, Escherichia coli, Enterococcus, Bacillus) or onto Sabouraud Dextrose Agar (Candida) and incubated at 35° C. Haemophilus and Streptococcus pneumoniae are incubated in 5% CO2; all other isolates are incubated in ambient air. Isolates are sub-cultured 2× before assay.
(§4) Colonies are selected from plates and used to prepare an inoculum equivalent to a 0.5 McFarland standard in Trypticase Soy Broth. An inoculum with a density equivalent to a 1.0 McFarland standard is prepared for Streptococcus pneumoniae. The inoculum density for all cultures is ˜10^8 CFU/mL in TSB. This TSB inoculum is diluted 1:10 in sterile saline (4 mL inoculum+36 mL saline; equivalent to ˜10^7 CFU/mL) and kept on ice until used to inoculate microtiter plates.
(§5) All wells of 96-well microtiter plates (Dynex) are filled with 100 TL media. Haemophilus test media plates are prepared to test Haemophilus influenzae; Cation-Adjusted Mueller Hinton+5% Lysed Horse Blood plates are prepared to test Streptococcus pneumoniae; Cation-Adjusted Mueller Hinton Broth plates are prepared to test Enterococcus, Staphylococcus aureus, Escherichia coli and Bacillus subtilis. RPMI 1640 is used to test Candida. The MICs against S. aureus Smith are determined in Cation-adjusted Mueller Hinton and in Cation-Adjusted Mueller Hinton+50% Human Serum, to determine if the compound is inactivated by some component in serum (indicated by an increase in the MIC). Filled plates are wrapped in plastic bags (to minimize evaporation), stored frozen and thawed before use.
(§6) The compounds are prepared on a weight basis. Compounds are prepared to 2-10 mg/mL in 100% DMSO, then diluted to 1 mg/mL in a 1:1 dilution of DMSO/233 CAMHB (final concentration=50% DMSO/50% CAMHB). Compounds are serially diluted 1:1 in 50% DMSO/50% CAMHB in BD Biosciences Deep Well Polypropylene 96 well plates (starting concentration 1-5 mg/mL).
(§7) Using a Finn Automated Multichannel Pipette, (0.5-10 μL volume) 6.4 TLs of antimicrobial working solutions are added to wells of filled microtiter plates (concentration of antimicrobial in first well=512-64 microg/mL; concentration of DMSO=3.2%). Antimicrobials are added in this manner to keep constant the amount of DMSO in each well (to keep compounds solubilized and to account for the possibility of non-specific killing by the DMSO. The last row contains a growth control of 3.2% DMSO.
(§8) Controls (Penicillin G and chloramphenicol) are run with each assay. The controls are prepared in the same manner as described for the compounds of the invention. Ertapenem is included as a control for the serum protein binding assay.
(§9) Plates are incubated at 35° C. in ambient air. An uninoculated plate is also incubated as a sterility check. Results are recorded after 22-24-hours' incubation. Plates were read to no growth.

[2] = tested on: Staphylococcus Aureus MB 2865; conditions: Staphylococcus Aureus strain MB 2865
Experimental: as §1, §2, §3, §4, §5, §6, §7, §8, §9

[3] = tested on: Staphylococcus Aureus CL 5814; conditions: Staphylococcus Aureus strain CL 5814
Experimental: as §1, §2, §3, §4, §5, §6, §7, §8, §9

[4] = tested on: Staphylococcus Aureus CL 8260; conditions: Staphylococcus Aureus strain CL 8260
Experimental: as §1, §2, §3, §4, §5, §6, §7, §8, §9

SMILES | MIC ([1]; Enterococcus) [µg/mL] | MIC [2] [µg/mL] | MIC [3] [µg/mL] | MIC [4] [µg/mL] | MIC ([1]; Enterococcus Faecalia strain CLB 21560, read-out: MIC) [µg/mL]
CO/C(C)=C1/NC(=O)[C@H]([C@@H](C)O)NC(=O)c2csc(n2)-c2cc(O)c(-c3nc(CNC(=O)CN4CCOCC4)cs3)nc2-c2csc(n2)[C@@H]2COC(=O)c3c4c5c(cccc5n3O)COC(=O)[C@@H](O[C@H]3C[C@](C)(O)[C@H](N(C)C)[C@H](C)O3)[C@@H](OC4)[C@H](NC(=O)c3csc1n3)c1nc(cs1)C(=O)N2 [Compound A] | 0.015 (≈ 0.0101 µM) | 0.0075 (≈ 0.00506 µM) | 0.0038 (≈ 0.00256 µM) | 0.015 (≈ 0.0101 µM) | 
CO/C(C)=C1/NC(=O)[C@H]([C@@H](C)O)NC(=O)c2csc(n2)-c2cc(O)c(-c3nc(CNCCO)cs3)nc2-c2csc(n2)[C@@H]2COC(=O)c3c4c5c(cccc5n3O)COC(=O)[C@@H](O[C@H]3C[C@](C)(O)[C@H](N(C)C)[C@H](C)O3)[C@@H](OC4)[C@H](NC(=O)c3csc1n3)c1nc(cs1)C(=O)N2 [Compound B] |  | 0.03 (≈ 0.0215 µM) | 0.0075 (≈ 0.00536 µM) | 0.03 (≈ 0.0215 µM) | 0.06 (≈ 0.0429 µM)
